Tests used:
[1] = Metabolism stability test, pooled human hepatic microsomes (Test Example 11); format: in vitro ADME; details: human liver microsomes, 30 minutes, compound concentration 0.5 μmol/L
Description: Using commercially available pooled human hepatic microsomes, a test compound is reacted for a constant time, a remaining rate is calculated by comparing a reacted sample and an unreacted sample, thereby, a degree of metabolism in liver is assessed.
A reaction was performed (oxidative reaction) at 37° C. for 0 minute or 30 minutes in the presence of 1 mmol/L NADPH in 0.2 mL of a buffer (50 mmol/L tris-HCl pH 7.4, 150 mmol/L potassium chloride, 10 mmol/L magnesium chloride) containing 0.5 mg protein/mL of human liver microsomes. After the reaction, 50 μL of the reaction solution was added to 100 μL of a methanol/acetonitrile=1/1 (v/v), mixed and centrifuged at 3000 rpm for 15 minutes. The test compound in the supernatant was quantified by LC/MS/MS, and a remaining amount of the test compound after the reaction was calculated, letting a compound amount at 0 minute reaction time to be 100%.
The remaining rate at the compound concentration 0.5 μmol/L are shown below.

human P2X3 receptor = human P2X3 receptor (Homo sapiens (Human), UniProt P56373); test: Evaluation of human P2X3 receptor inhibitory activity (Test Example 1); format: cell-based; details: C6BU-1 cell transfected with human P2X3 receptor gene, FLIPR 384
How it was run: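 C6BU-1 cells stably expressing human P2X3, loaded with 4 μM Fluo-3-AM 1 h at 37 °C, preincubated 5 min with test compound, then stimulated with 150 nM ATP solution (stock, pre-dispense) and monitored by FLIPR for 4 min. IC50 derived from maximum fluorescence ratio (post-ATP peak over baseline).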

[2] = system: partial sciatic nerve ligation model in rats; test: Analgesic effect in a Seltzer model, Evaluation (1): mechanical allodynia, von Frey filaments (Test Example 6); format: in vivo; details: rat Seltzer model, reversal of mechanical allodynia (von Frey), single oral administration of 1 mg/kg, at 3 hours
Source text: Rats were anaesthetized using isoflurane/O2 inhalation anaesthesia. After induction of anesthesia, the left thigh was shaved. An incision was made in the skin just below the hip bone. The muscle was bluntly dissected to expose the sciatic nerve. One third (⅓) to one half (½) of the sciatic nerve thickness was tightly ligated and the wound was closed. The right thigh is used as a sham-operated control. The right thigh undergoes an identical procedure with the left hind limb, however, the sciatic nerve is not manipulated or ligated.
Two weeks after nerve ligation, the effect on mechanical allodynia was assessed using a series of von Frey filaments. For habituation, the rats were placed into a plastic cage on a wire mesh bottom. The mechanical sensitivity (mechanical threshold) of the hind paws was estimated with a series of von Frey filaments (0.4-26 g). The measurement of mechanical sensitivity of the right and left hind paws was performed to obtain predose mechanical sensitivity. […] On the day before the experiment, the rats were evaluated with a series of von Frey filaments to familiarize them with the test procedure. […] Post-dose mechanical sensitivities of the right and left hind paws were measured at approximately 1 to 5 hours after drug administration. Percent reversal of mechanical allodynia for each rat was calculated using the following formula. […]

[3] = Pharmacokinetic test: bioavailability and total body clearance (Test Example 15); format: in vivo; details: SD rats, from AUCs of oral and intravenous groups
Description: • (1) Animals: SD rats were used • (2) Breeding conditions: SD rats were allowed to freely take solid food and sterilized tap water. • (3) Dose and grouping: orally or intravenously administered at a predetermined dose; grouping was as follows (Dose depends on the compound)
Oral administration: 1 mg/kg (n=2)
The total body clearance (CLtot) was calculated by dividing the dose by the AUC of the intravenous administration group.

rat P2X3 receptor = rat P2X3 receptor (Rattus norvegicus (Rat), UniProt P49654); test: Evaluation of rat P2X3 receptor inhibitory activity (Test Example 3); format: cell-based; details: rat P2X3 receptor gene expressed in C6BU-1 cell; read-out: ratP2X3 IC50
Description: Rat P2X3 receptor gene (GenBank accession number NM_031075) was expressed in C6BU-1 cell. The C6BU-1 cells were seeded in a 96-well microtiter plate at a concentration of 2500 cells/well and cultured in the medium (7.0% fetal bovine serum, 7.0% horse serum, and 1% antibiotic and antifungal in DMEM) for one day at 37° C. under 5% carbon dioxide atmosphere. The plasmid was transfected into the cells using transfection reagent FuGENE6 (Promega). The transfected cells were cultured in the medium for one day at 37° C. under 5% carbon dioxide atmosphere. […] Measurement of fluorescence intensity by FDSS 3000 was started, and 40 μL of DMSO solutions containing different concentrations of the test compound as prepared by dilution with dilution buffer (20 mM HEPES, 137 mM NaCl, 5.27 mM KCl, 0.9 mM MgCl2, 1.26 mM CaCl2, 5.6 mM D-glucose, 2.5 mM probenecid, 0.1% Pluronic F-127, pH7.5) were dispensed to each well through the built-in automatic dispenser. Five minutes after, 50 nM ATP solution (50 μL) prepared by dilution with the dilution buffer was dispensed through the built-in automatic dispenser, and the measurement of fluorescence intensity was continued for 4 min. For each well, the specific maximum fluorescence intensity was calculated as the ratio of the maximum fluorescence intensity after addition of the ATP solution to the fluorescence intensity at the starting of the measurement. […]

Sequence of human P2X3 receptor (P56373 whole entry): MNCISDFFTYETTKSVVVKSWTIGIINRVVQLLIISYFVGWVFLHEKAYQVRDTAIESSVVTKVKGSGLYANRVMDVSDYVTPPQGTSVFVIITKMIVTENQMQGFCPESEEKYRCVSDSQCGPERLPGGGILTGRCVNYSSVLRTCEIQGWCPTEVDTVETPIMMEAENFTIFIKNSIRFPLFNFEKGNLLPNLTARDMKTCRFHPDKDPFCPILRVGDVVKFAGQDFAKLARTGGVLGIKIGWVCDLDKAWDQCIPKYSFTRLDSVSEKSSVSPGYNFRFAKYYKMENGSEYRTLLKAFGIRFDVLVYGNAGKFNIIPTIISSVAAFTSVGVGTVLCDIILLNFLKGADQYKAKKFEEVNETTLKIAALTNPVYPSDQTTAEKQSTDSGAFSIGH
Sequence of rat P2X3 receptor (P49654 whole entry): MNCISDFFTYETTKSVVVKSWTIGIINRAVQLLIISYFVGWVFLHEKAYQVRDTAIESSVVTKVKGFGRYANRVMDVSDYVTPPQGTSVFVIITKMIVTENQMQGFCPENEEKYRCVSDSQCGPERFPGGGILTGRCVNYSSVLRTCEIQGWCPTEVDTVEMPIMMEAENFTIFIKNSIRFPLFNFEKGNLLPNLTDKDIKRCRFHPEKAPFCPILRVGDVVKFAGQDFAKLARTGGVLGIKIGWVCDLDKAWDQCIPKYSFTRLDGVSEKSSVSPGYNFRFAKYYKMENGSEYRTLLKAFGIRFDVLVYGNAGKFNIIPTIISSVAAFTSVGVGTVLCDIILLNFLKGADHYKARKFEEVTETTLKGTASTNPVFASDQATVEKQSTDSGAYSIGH

| SMILES | IC50 (human P2X3 receptor) [nM] | other results |
| --- | --- | --- |
| C[C@@H](Cn1c(=O)[nH]/c(=N\c2ccc(Oc3cc(F)ccn3)cc2)n(Cc2ccc(Cl)cc2)c1=O)C(=O)O [Compound I-070] | 5 | Metabolism Stability (remaining rate) [1]: 103% |
| O=c1[nH]/c(=N\c2ccc(Oc3ccc(F)cn3)cc2)n(Cc2ccc(Cl)cc2)c(=O)n1[C@H]1C[C@H](C(=O)O)C1 [Compound I-019] | 7 | % reversal [2]: 27.9%; Metabolism Stability (remaining rate) [1]: 96% |
| Cc1ccc(Cn2c(=O)n(C[C@H](C)C(=O)O)c(=O)[nH]/c2=N\c2ccc(Oc3ccc(F)cn3)cc2)cc1 [Compound I-040] | – | BA [3]: 70.3% |
| O=C(O)C1(Cn2c(=O)[nH]/c(=N\c3ccc(Oc4cccc(F)n4)cc3)n(Cc3ccc(Cl)cc3)c2=O)CC1 [Compound I-017] | 6 | BA [3]: 80.7% |
| C[C@@H](Cn1c(=O)[nH]/c(=N\c2ccc(Oc3cccc(Cl)n3)cc2)n(Cc2ccc(Cl)cc2)c1=O)C(=O)O [Compound I-014] | 7 | BA [3]: 106.2% |
| C[C@@H](Cn1c(=O)[nH]/c(=N\c2ccc(Oc3cccc(F)n3)cc2)n(Cc2ccc(F)cc2F)c1=O)C(=O)O [Compound I-029] | 14 | Metabolism Stability (remaining rate) [1]: 100% |
| O=c1[nH]/c(=N\c2ccc(Oc3ncccc3F)cc2)n(Cc2ccc(Cl)cc2)c(=O)n1[C@H]1C[C@H](C(=O)O)C1 [Compound I-063] | 9 | Metabolism Stability (remaining rate) [1]: 97% |
| C[C@@H](Cn1c(=O)[nH]/c(=N\c2ccc(Oc3ccccn3)cc2)n(Cc2ccc(Cl)cc2)c1=O)C(=O)O [Compound I-127] | 4 | BA [3]: 52.8% |
| COc1cc(Oc2ccc(/N=c3\[nH]c(=O)n([C@@H](C)[C@@H](C)C(=O)O)c(=O)n3Cc3ccc(Cl)cc3)cc2)ccn1 [Compound R-009] | 7 | IC50 (rat P2X3 receptor): 4 nM |
| Cc1ccc(Oc2ccc(/N=c3\[nH]c(=O)n(CC(C)(C)C(=O)O)c(=O)n3Cc3ccc(Cl)cc3)cc2)nc1 [Compound I-058] | 6 | BA [3]: 67.2% |
| Cc1ccc(Cn2c(=O)n(C[C@H](C)C(=O)O)c(=O)[nH]/c2=N\c2ccc(Oc3cccc(F)n3)cc2)cc1 [Compound I-057] | 5 | BA [3]: 66.4%; % reversal [2]: 21.4%; Metabolism Stability (remaining rate) [1]: 91% |
| Cc1ccc(Cn2c(=O)n(C[C@H](C)C(=O)O)c(=O)[nH]/c2=N\c2ccc(Oc3cccc(CF)n3)cc2)cc1 [Compound I-261] | 8 | – |
| CO[C@@H](Cn1c(=O)[nH]/c(=N\c2ccc(Oc3ccccn3)cc2)n(Cc2ccc(Cl)cc2)c1=O)C(=O)O [Compound I-146] | 5 | – |
| COC(=O)[C@@H](C)Cn1c(=O)[nH]/c(=N\c2ccc(Oc3ccccn3)c(Cl)c2)n(Cc2ccc(Cl)cc2)c1=O [Compound I-252] | 14 | – |
| CCn1c(=O)nc(Nc2ccc3nc(C(C)C)oc3c2)n(Cc2ccc(Cl)cc2)c1=O [Compound R-007] | 301 | – |
| COC(=O)C(C)(C)Cn1c(=O)[nH]/c(=N\c2ccc(Oc3nc(C)ns3)cc2)n(Cc2ccc(Cl)cc2)c1=O [Compound R-137] | 6 | – |
| CCc1[nH]c2ccc(/N=c3\[nH]c(=O)n([C@@H](C)[C@@H](C)C(=O)O)c(=O)n3Cc3ccc(Cl)cc3)cc2c1C [Compound R-128] | 11 | – |
| COC(=O)C(C)(C)Cn1c(=O)[nH]/c(=N\c2ccc(Oc3ccc(F)cn3)cc2)n(Cc2ccc(C)cc2)c1=O [Compound I-037] | 6 | – |
| COc1ccc(Oc2ccc(/N=c3\[nH]c(=O)n(C[C@H](C)C(=O)O)c(=O)n3Cc3ccc(Cl)cc3)cc2)nn1 [Compound R-085] | 6 | – |
| Cc1ccc(Cn2c(=O)n(C[C@H](C)C(=O)O)c(=O)[nH]/c2=N\c2ccc(Oc3cccc(C(F)(F)F)n3)cc2)cc1 [Compound I-039] | 8 | – |
| NC(=O)Cn1c(=O)[nH]/c(=N\c2ccc(Oc3ccccn3)cc2)n(Cc2ccc(Cl)cc2)c1=O [Compound R-240, 1-(4-chlorobenzyl)-3-(carbamoylmethyl)-6-[4-(2-pyridyloxy)phenylimino]-1,3,5-triazinane-2,4-dione] | 11 | – |
| O=c1[nH]/c(=N\c2ccc(Oc3ccccn3)cc2)n(Cc2ccc(Cl)cc2)c(=O)n1CC(O)(CO)CO [Compound R-255, 1-(4-chlorobenzyl)-3-(2-hydroxymethyl-2,3-dihydroxypropyl)-6-[4-(2-pyridyloxy)phenylimino]-1,3,5-triazinane-2,4-dione] | 5 | – |
| CCn1c(=O)[nH]/c(=N\c2ccc(O[C@H]3C[C@@H](C(=O)O)C3)cc2)n(Cc2ccc(Cl)cc2)c1=O [Compound R-063] | 456 | – |
| Cc1cc(/N=c2\[nH]c(=O)n(CC(C)(C)C(=O)O)c(=O)n2Cc2ccc(Cl)cc2)ccc1Oc1cncc(F)c1 [Compound R-118] | 5 | – |
| COC(=O)C(C)(C)Cn1c(=O)[nH]/c(=N\c2ccc(Oc3ccnc(C#N)c3)cc2)n(Cc2ccc(Cl)cc2)c1=O [Compound R-100] | 6 | – |
| C[C@@H](Cn1c(=O)[nH]/c(=N\c2ccc(O[C@H](C)C(F)(F)F)c(F)c2)n(Cc2ccc(Cl)cc2)c1=O)C(=O)O [Compound R-093] | 13 | – |
| COC(=O)Cn1c(=O)[nH]/c(=N\c2ccc(Oc3ccccn3)cc2)n(Cc2ccc(Cl)cc2)c1=O [Compound R-238, 1-(4-chlorobenzyl)-3-(methoxycarbonylmethyl)-6-[4-(2-pyridyloxy)phenylimino]-1,3,5-triazinane-2,4-dione] | 7 | – |
| C[C@@H](C(=O)O)[C@H](C)n1c(=O)[nH]/c(=N\c2ccc(Oc3ccc(OC(F)F)cn3)cc2)n(Cc2ccc(Cl)cc2)c1=O [Compound I-072] | 6 | – |
| COC(=O)C[C@@H](C)n1c(=O)[nH]/c(=N\c2ccc(Oc3ncccc3F)cc2)n(Cc2ccc(C)cc2)c1=O [Compound I-188] | 7 | – |
| COC(=O)C(C)(C)Cn1c(=O)[nH]/c(=N\c2ccc(Oc3cnccn3)c(F)c2)n(Cc2ccc(Cl)cc2)c1=O [Compound R-049] | 8 | – |
